We go through two compounds from BindingDB's records for doi:10.1021/jm801211c (Intervet Innovation, 2009).

The target of the assay is Mu-type opioid receptor (Homo sapiens, UniProt P35372). Kind of assay: Mu Opioid Receptor Binding Assay and Antagonist Functionality Assay. To be noted: pH 7.4; 22 °C. On the procedure: In the binding assays, the results were expressed as percent inhibition of the control radioligand specific binding. The IC50 values (concentration causing a half maximal inhibition of control specific binding) were determined by non-linear regression analysis of the competition curves using Hill equation curve fitting. The inhibition constants (Ki) were calculated from the Cheng Prusoff equation. EC50/IC50 measures the antagonist activities on mu-agonist triggered luminescence in AequoScreen cells.
Mu-type opioid receptor, sequence (P35372 whole entry): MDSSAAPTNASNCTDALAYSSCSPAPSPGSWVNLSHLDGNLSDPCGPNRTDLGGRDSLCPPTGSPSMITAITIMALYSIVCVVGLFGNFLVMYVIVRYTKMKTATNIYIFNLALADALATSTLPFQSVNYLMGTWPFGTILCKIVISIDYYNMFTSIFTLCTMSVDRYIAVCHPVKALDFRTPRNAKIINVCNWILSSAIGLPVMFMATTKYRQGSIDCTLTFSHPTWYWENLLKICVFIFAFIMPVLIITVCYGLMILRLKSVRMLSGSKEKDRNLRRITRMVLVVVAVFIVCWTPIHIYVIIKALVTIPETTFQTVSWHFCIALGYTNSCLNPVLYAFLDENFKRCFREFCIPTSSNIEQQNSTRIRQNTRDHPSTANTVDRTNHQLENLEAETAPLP

As usually defined, the EC50 is the concentration at which the effect is half-maximal. Read a low EC50 as greater potency. `CC(C)N[C@@H]1CCn2c(=O)[nH]c3cccc(c32)[C@H]1O` [(9R,10R)-9-hydroxy-10-(propan-2-ylamino)-1,3-diazatricyclo[6.4.1.0^{4,13}]trideca-4(13),5,7-trien-2-one] came in with an EC50 greater than 1000 µM. In the case of `CC(C)N[C@H]1CCn2c(=O)[nH]c3cccc(c32)[C@@H]1O` [(9S,10S)-9-hydroxy-10-(propan-2-ylamino)-1,3-diazatricyclo[6.4.1.0^{4,13}]trideca-4(13),5,7-trien-2-one], the EC50 amounted to 140 µM.
